Earlier results, collected in patent US20240278494A1, “THREE-DIMENSIONAL ADDITIVE FABRICATION WITH SUPPORT FLUID” (GEORGIA TECH RESEARCH CORPORATION, priority 2021, published 2024).
Like-named read-outs stand apart in the source and are kept apart here.

Columns and labels:
[1] = for ρ: Table 2, resin additives; for Density: Table 1, acrylate monomers
[2] = Table 2, resin additives
[3] = not given; remark: listed apart in the source

C=CC(=O)OCC(CC)CCCC (centres unmarked) [EHA, 2-Ethylhexyl acrylate]
Viscosity (Table 2, resin additives): 1.7 cP | ρ [1]: 0.885 g/mL | γ (surface tension) [2]: 26 mN/m

CCCCOC(C)=O [n-Butyl Acetate]
Viscosity (Table 2, resin additives): 1.1002 cP | ρ [1]: 0.8825 g/mL | γ (surface tension) [2]: 25.3 mN/m | Water solubility ([3]; Table 2, resin additives): 680 µg/mL

Dimethylbenzene [Xylene]
Viscosity (Table 2, resin additives): 0.812 cP | ρ [1]: 0.865 g/mL | γ (surface tension) [2]: 28 mN/m | Water solubility ([3]; Table 2, resin additives): <100 µg/mL

C1CCC2CCCCC2C1 (centres unmarked) [Decalin, Decahydronaphthalene]
Viscosity (Table 2, resin additives): 1.788 cP | ρ [1]: 0.896 g/mL

CCCCCCCC/C=C\CCCCCCCC(=O)O [OA, Oleic Acid]
Viscosity (Table 2, resin additives): 27.64 cP | ρ [1]: 0.895 g/mL | γ (surface tension) [2]: 31.92 mN/m | Water solubility ([3]; Table 2, resin additives): <100 µg/mL

C=C(C)C(=O)OC [MMA, Methyl Methacrylate]
Viscosity (Table 2, resin additives): 0.6 cP | ρ [1]: 0.94 g/mL | γ (surface tension) [2]: 31.4 mN/m

Urethane dimethacrylate [UDMA]
Viscosity (Table 1, acrylate monomers): 6.75 cP | Density [1]: 1.129 g/mL

C=C(C)C(=O)OCCOCCOCCOC(=O)C(=C)C [TEGDMA, Triethylene glycol dimethacrylate]
Viscosity (Table 1, acrylate monomers): 50 cP | Density [1]: 1.072 g/mL | Water solubility ([3]; Table 1, acrylate monomers): 2410 µg/mL

COCC(C)OC(C)=O (centres unmarked) [PGMEA, Propylene glycol methyl ether acetate]
Viscosity (Table 2, resin additives): 0.8 cP | ρ [1]: 0.962 g/mL | γ (surface tension) [2]: 26.9 mN/m | Water solubility ([3]; Table 2, resin additives): 19800 µg/mL

OCCCO [1,3-Propanediol]
Viscosity (Table 2, resin additives): 52 cP | ρ [1]: 1.0597 g/mL | γ (surface tension) [2]: 46.2 mN/m

C=CC(=O)OCCCCCCOC(=O)C=C [HDDA, 1,6-Hexanediol diacrylate]
Viscosity (Table 1, acrylate monomers): 9 cP | Density [1]: 1.02 g/mL | Water solubility ([3]; Table 1, acrylate monomers): 100 µg/mL

C=CC(=O)OC [MA, Methyl Acrylate]
Viscosity (Table 2, resin additives): 0.6 cP | ρ [1]: 0.95 g/mL | Water solubility ([3]; Table 2, resin additives): 50000 µg/mL

C=CC(=O)OCCCC [BA, Butyl Acrylate]
Viscosity (Table 2, resin additives): 0.92 cP | ρ [1]: 0.9 g/mL | γ (surface tension) [2]: 20 mN/m
